Assay results published in patent US9328374B2, “Selective culture medium and method for detecting carbapenem-resistant bacteria in a test sample” (Institut National de la Sante et de la Recherche Medicale …, priority 2011, dated 2016).

Tests used:
enterobacterial isolates = test: MIC of imipenem, ertapenem and meropenem (groups of isolates, other species); format: cell-based, Enterobacteriaceae
P. stuartii = test: MIC of imipenem, ertapenem and meropenem; format: cell-based, Providencia stuartii
P. rettgeri = test: MIC of imipenem, ertapenem and meropenem; format: cell-based, Providencia rettgeri
E. coli = test: MIC of imipenem, ertapenem and meropenem; format: cell-based, Escherichia coli

C[C@@H](O)[C@H]1C(=O)N2C(C(=O)O)=C(SCCN=CN)C[C@H]12 [IPM, imipenem]
MIC (enterobacterial isolates; S. marcescens 0911033, IMP-1): >32 µg/mL | MIC (enterobacterial isolates; S. marcescens 1008091, VIM-1+ CTX-M-15): >32 µg/mL | MIC (enterobacterial isolates; S. marcescens C7052, KPC-2 + TEM-1 + SHV-12): >32 µg/mL | MIC (enterobacterial isolates; S. marcescens D6403, KPC-2 + TEM-1): >32 µg/mL | MIC (P. stuartii; P. stuartii NDM (NDM-1 + OXA-1 + CMY-6)): 12 µg/mL | MIC (P. stuartii; P. stuartii PS1 (NDM-1 + CMY-6 + OXA-1)): 12 µg/mL | MIC (P. stuartii; P. stuartii PS1, NDM-1 + CMY-6 + OXA-1): 12 µg/mL | MIC (P. stuartii; strain P. stuartii PS1, NDM-1 + CMY-6 + OXA-1): 12 µg/mL | MIC (P. rettgeri; P. rettgeri RAP (OXA-181 + OXA-1)): 8 µg/mL | MIC (P. rettgeri; P. rettgeri RAP, OXA-181 + OXA-1): 8 µg/mL | MIC (P. rettgeri; strain P. rettgeri RAP, OXA-181 + OXA-1): 8 µg/mL | MIC (E. coli; E. coli 1008 (TEM-1 + CTX-M-1)): 0.19 µg/mL | MIC (E. coli; E. coli 1008, CTX-M-1 + TEM-1, non-carbapenemase producer): 0.19 µg/mL | MIC (E. coli; E. coli 1020, CTX-M-1 + TEM-1, non-carbapenemase producer): 0.19 µg/mL | MIC (E. coli; E. coli 1023, CTX-M-2 + TEM-1, non-carbapenemase producer): 0.12 µg/mL | MIC (E. coli; E. coli 1033, CTX-M-15, non-carbapenemase producer): 0.19 µg/mL | MIC (E. coli; E. coli 1034 (TEM-1 + SHV-38)): 0.19 µg/mL | MIC (E. coli; E. coli 1034, TEM-1 + SHV-38, non-carbapenemase producer): 0.19 µg/mL | MIC (E. coli; E. coli 1048 (TEM-1 + SHV-2a)): 0.19 µg/mL | MIC (E. coli; E. coli 1048, TEM-1 + SHV-2a, non-carbapenemase producer): 0.19 µg/mL | MIC (E. coli; E. coli 1082 (TEM-1)): 0.19 µg/mL | MIC (E. coli; E. coli 1082, TEM-1, non-carbapenemase producer): 0.19 µg/mL | MIC (E. coli; E. coli 1092 (OXA-1)): 0.12 µg/mL | MIC (E. coli; E. coli 1092, OXA-1, non-carbapenemase producer): 0.12 µg/mL | MIC (E. coli; E. coli 6252, (wild type), non-carbapenemase producer): 0.12 µg/mL | MIC (E. coli; E. coli 6367 (wild type)): 0.19 µg/mL | MIC (E. coli; E. coli 6367, (wild type), non-carbapenemase producer): 0.19 µg/mL | MIC (E. coli; E. coli 10121 (CTX-M-2)): 0.19 µg/mL | MIC (E. coli; E. coli 10121, CTX-M-2, non-carbapenemase producer): 0.19 µg/mL | MIC (E. coli; E. coli 10122, CTX-M-1 + TEM-1, non-carbapenemase producer): 0.19 µg/mL | MIC (E. coli; E. coli 0404018, VIM-1+ CMY-6): 3 µg/mL | MIC (E. coli; E. coli 1008077, VIM-1+ TEM-1 + CTX-M-15): >32 µg/mL | MIC (E. coli; E. coli 1108013, IMP-1 + TEM-1): 0.5 µg/mL | MIC (E. coli; E. coli ALL (NDM-1 + OXA-1 + OXA-2 + CTX-M-15 + TEM-1)): 4 µg/mL | MIC (E. coli; E. coli ALL, NDM-1 + TEM-1 + CTX-M-15 + OXA-1 + OXA-2): 4 µg/mL | MIC (E. coli; E. coli AME (OXA-48 + CTX-M-24)): 0.25 µg/mL | MIC (E. coli; E. coli AME, OXA-48 + CTX-M-24): 0.25 µg/mL | MIC (E. coli; E. coli AUS (NDM-1 + CTX-M-15 + TEM-1)): 6 µg/mL | MIC (E. coli; E. coli AUS, NDM-1 + TEM-1 + CTX-M-15): 6 µg/mL | MIC (E. coli; E. coli BER (OXA-48 + CTX-M-15)): 0.38 µg/mL | MIC (E. coli; E. coli BER, OXA-48 + TEM-1 + CTX-M-15): 0.38 µg/mL | MIC (E. coli; E. coli BOK (OXA-48 + CTX-M-15)): 0.25 µg/mL | MIC (E. coli; E. coli BOK, OXA-48 + CTX-M-15): 0.25 µg/mL | MIC (E. coli; E. coli BON (OXA-48 + CTX-M-24 + TEM-1)): 0.38 µg/mL | MIC (E. coli; E. coli BON, OXA-48 + TEM-1 + CTX-M-24): 0.38 µg/mL | MIC (E. coli; E. coli BOU (OXA-48 + CTX-M-15)): 0.5 µg/mL | MIC (E. coli; E. coli BOU, OXA-48 + CTX-M-15): 0.5 µg/mL | MIC (E. coli; E. coli COL (KPC-2)): 4 µg/mL | MIC (E. coli; E. coli COL, KPC-2 + TEM-1 + CTX-M-9): 4 µg/mL | MIC (E. coli; E. coli DIH (VIM-19)): 8 µg/mL | MIC (E. coli; E. coli DIH, VIM-19): 8 µg/mL | MIC (E. coli; E. coli DIN, KPC-2 + TEM-1 + OXA-1): 1 µg/mL | MIC (E. coli; E. coli E14 (CTX-M-14)): 0.12 µg/mL | MIC (E. coli; E. coli E14, CTX-M-14, non-carbapenemase producer): 0.12 µg/mL | MIC (E. coli; E. coli ECA (ACC-1)): 0.12 µg/mL
